From publication PMC3510438, “The transmembrane tyrosines Y56, Y91 and Y167 play important roles in determining the affinity and transport rate of the rabbit proton-coupled peptide transporter PepT1” (The International Journal of Biochemistry & Cell Biology, 2009)
Changes are numbered by the printed parent chain. Where a SMILES comes first, the peptide text is derived from it. [ ]: non-standard residue; d: D form. Sar = CNCC(=O)O

Key:
Y56F-rPepT1 [1] = biological target: T1, Y56F-rPepT1 (Oryctolagus cuniculus, UniProt P36836, Y56F); set-up: method as in Chen et al. (2000); conditions: Y56F mutant versus wild-type; ref Chen et al. (2000); cited from earlier work
T1 construct: expressed in transfected cells; host or cells: Xenopus laevis oocytes injected with cRNA
T1 sequence (P36836 1-707 Y56F): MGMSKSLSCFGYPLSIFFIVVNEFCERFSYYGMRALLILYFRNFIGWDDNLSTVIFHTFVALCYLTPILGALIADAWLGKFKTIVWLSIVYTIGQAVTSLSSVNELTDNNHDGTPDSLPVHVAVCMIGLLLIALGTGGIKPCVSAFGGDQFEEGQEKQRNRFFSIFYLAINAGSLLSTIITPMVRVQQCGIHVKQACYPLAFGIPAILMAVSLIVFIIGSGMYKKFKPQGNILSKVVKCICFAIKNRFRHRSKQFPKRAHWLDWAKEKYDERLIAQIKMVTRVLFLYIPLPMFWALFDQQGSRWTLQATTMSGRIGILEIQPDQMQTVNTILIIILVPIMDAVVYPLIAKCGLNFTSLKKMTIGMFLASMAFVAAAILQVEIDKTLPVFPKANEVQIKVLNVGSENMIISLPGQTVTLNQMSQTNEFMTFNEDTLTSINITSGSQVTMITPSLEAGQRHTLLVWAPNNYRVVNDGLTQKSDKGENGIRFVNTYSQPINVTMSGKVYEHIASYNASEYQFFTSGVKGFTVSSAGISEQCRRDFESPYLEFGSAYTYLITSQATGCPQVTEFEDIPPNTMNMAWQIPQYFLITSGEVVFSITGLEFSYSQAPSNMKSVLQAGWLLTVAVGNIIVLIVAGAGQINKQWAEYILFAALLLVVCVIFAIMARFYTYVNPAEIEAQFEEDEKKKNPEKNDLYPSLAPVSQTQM

Y56A mutation of PepT1 = test system: Y56A mutation of PepT1; set-up: method as in Chen et al. (2000); conditions: ref Chen et al. (2000); cited from earlier work
[2] = test system: hPepT1 with mutations of Y167; set-up: method as in Yeung et al., 1998; conditions: transfected HEK293 cells; ref Yeung et al., 1998; cited from earlier work
Y56F-rPepT1 [3] = biological target: T1, Y56F-rPepT1; experiment: Competition of [3H]-D-Phe-L-Gln uptake into Xenopus oocytes, Ki; assay type: cell-based, rabbit; conditions: pHout 5.5, n = 4; for Ki: inhibition of 0.4 μM [3H]-D-Phe-L-Gln uptake
Method: rPepT1 constructs were linearised with XbaI (New England Biolabs, UK) and cRNA generated by in vitro transcription (T7 mMessage mMachine, Ambion, Cambridgeshire, UK).
As a control non-injected oocytes were also incubated in uptake medium with D-Phe-L-Gln as above.

wild-type rPepT1 = biological target: T2, wild-type rPepT1 (Oryctolagus cuniculus, UniProt P36836); experiment: Competition of [3H]-D-Phe-L-Gln uptake into Xenopus oocytes, Ki by method of Deves and Boyd; assay type: cell-based, rabbit; conditions: pHout 5.5; inhibition of 0.4 μM [3H]-D-Phe-L-Gln uptake; n = 4
T2 construct: expressed in transfected cells; host or cells: Xenopus laevis oocytes injected with cRNA
T2 sequence (P36836 1-707): T1 sequence (P36836 1-707 Y56F) with F56Y
Method: rPepT1 constructs were linearised with XbaI (New England Biolabs, UK) and cRNA generated by in vitro transcription (T7 mMessage mMachine, Ambion, Cambridgeshire, UK). Xenopus laevis oocytes were obtained under MS222 anaesthesia (0.2%, w/v) in accordance with the UK Animals (Scientific Procedures) Act, 1986, and maintained at 18 °C in modified Barth's medium (88 mM NaCl, 1 mM KCl, 0.82 mM MgSO4, 2.4 mM NaHCO3, 0.42 mM CaCl2, 10 mM Hepes, 5 mM sodium pyruvate, 50 μg ml^−1 gentamicin (Fluka, Poole, UK), adjusted to pH 7.6 with 1 M NaOH). Transport measurements were performed at least 72 h after micro-injection of oocytes with 27nl cRNA (1 μg/μl), with medium changed daily.
Uptake of [^3H]-D-Phe-L-Gln (17.4 Ci/mmole, custom synthesised, Cambridge Research Biochemicals, Stockton-on-Tees, UK) was performed as previously described ([Meredith, 2004]). Briefly, 5 oocytes were incubated in 100 μl of uptake medium (95 mM NaCl, 2 mM KCl, 1 mM CaCl2, 0.42 mM MgCl2, 10 mM Tris/Hepes pH 7.4 or Tris/Mes pH 5.5) with tracer (0.4 μM) [^3H]-D-Phe-L-Gln. After incubation, the oocytes were washed sequentially five times in 1 ml of ice-cold 120 mM NaCl solution, lysed individually with 100 μl 2% (w/v) SDS and liquid scintillation counted. As a control non-injected oocytes were also incubated in uptake medium with D-Phe-L-Gln as above.
The affinity of wild-type and mutant rPepT1 transporters were assessed by competition studies with 0.4 μM [^3H]-D-Phe-L-Gln and Gly-L-Gln present in the uptake medium in concentrations from 0 to 2 mM using the protocol above, and the Ki calculated using the method of [Deves and Boyd (1989)].

Row | Structure (SMILES) | reduction of transport (Y56F-rPepT1 [1]) | transport (Y56A mutation of PepT1) | uptake [2] | Ki (Y56F-rPepT1 [3]) | fold change in affinity (Ki), wild-type rPepT1 versus Y56F-rPepT1 (Y56F-rPepT1 [3]) | Ki (wild-type rPepT1)
1 | CC(C)C[C@H](NC(=O)CN)C(=O)O [Gly-L-Leu] | approximately 85% | lost completely | – | – | – | –
2 | CN(CC(=O)O)C(=O)CN [Gly-Sar] (H-Gly-[Sar]-OH) | – | – | no measurable uptake | – | – | –
3 | NC(=O)[C@H](Cc1ccc(O)cc1)NC(=O)[C@@H](N)Cc1ccccc1 [Phe-Tyr-NH2] (H-Phe-Tyr-NH2) | – | – | – | 72.9 ± 20.5 µM | 64.4 ± 26.0 fold | 6600 ± 1620 µM
4 | NC(Cc1ccccc1)C(=O)NC(Cc1ccc(O)cc1)C(=O)O (stereo not drawn) [Phe-Tyr] (H-Phe-Tyr-OH; configuration not given here) | – | – | – | 0.86 ± 0.26 µM | 336.4 ± 100.6 fold | 200 ± 30 µM
